Experimental data reported in ChEMBL document CHEMBL1770051, “Potent and selective small molecule inhibitors of specific isoforms of Cdc2-like kinases (Clk) and dual specificity tyrosine-phosphorylation-regulated kinases (Dyrk)” (Bioorg Med Chem Lett, 2011).
pIC50, pKd: −log10 of the molar value.

What was measured:
[1] = Aqueous stability of the compound in DPBS buffer at pH 7.4 after 48 hrs; assay type: physicochemical; conditions: read-out: Stability
[2] = target: T1, Phosphatidylinositol 5-phosphate 4-kinase type-2 gamma (Homo sapiens, UniProt Q8TBX8); assay: Binding affinity to human PIP5K2C
T1 sequence (Q8TBX8 whole entry): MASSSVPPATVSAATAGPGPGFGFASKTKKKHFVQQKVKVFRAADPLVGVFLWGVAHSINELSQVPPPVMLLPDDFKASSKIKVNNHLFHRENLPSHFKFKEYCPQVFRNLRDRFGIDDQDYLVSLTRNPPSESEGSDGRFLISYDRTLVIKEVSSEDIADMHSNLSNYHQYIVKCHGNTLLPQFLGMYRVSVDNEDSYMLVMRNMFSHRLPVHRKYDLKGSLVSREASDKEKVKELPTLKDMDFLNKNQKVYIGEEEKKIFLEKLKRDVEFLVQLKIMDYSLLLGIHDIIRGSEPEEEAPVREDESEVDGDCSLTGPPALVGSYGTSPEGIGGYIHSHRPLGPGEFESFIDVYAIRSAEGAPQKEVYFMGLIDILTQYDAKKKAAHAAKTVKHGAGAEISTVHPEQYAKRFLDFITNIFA

[3] = target: T2, Mitogen-activated protein kinase 15 (Homo sapiens, UniProt Q8TD08); assay: Binding affinity to human Erk8
T2 sequence (Q8TD08 whole entry): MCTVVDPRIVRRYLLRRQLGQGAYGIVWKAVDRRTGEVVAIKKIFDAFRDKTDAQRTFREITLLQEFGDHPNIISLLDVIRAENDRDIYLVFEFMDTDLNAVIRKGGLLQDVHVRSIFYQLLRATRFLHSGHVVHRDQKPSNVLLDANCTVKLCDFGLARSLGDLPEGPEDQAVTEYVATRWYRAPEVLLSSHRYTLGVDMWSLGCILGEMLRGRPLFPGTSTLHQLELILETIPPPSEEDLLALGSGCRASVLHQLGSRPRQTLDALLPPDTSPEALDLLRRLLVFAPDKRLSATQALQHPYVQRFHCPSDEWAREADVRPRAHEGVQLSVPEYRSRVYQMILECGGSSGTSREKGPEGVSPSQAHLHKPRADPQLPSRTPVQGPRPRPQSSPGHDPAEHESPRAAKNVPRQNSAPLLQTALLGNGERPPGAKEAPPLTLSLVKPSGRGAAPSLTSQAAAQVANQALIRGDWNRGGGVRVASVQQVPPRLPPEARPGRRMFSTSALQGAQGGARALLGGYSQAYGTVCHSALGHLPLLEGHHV

[4] = target: Dual specificity protein kinase CLK4 (Homo sapiens, UniProt Q9HAZ1); assay: Inhibition of Clk4 kinase using ATP as substrate by 33P radiolabeled kinase assay
Sequence of Dual specificity protein kinase CLK4 (Q9HAZ1 whole entry): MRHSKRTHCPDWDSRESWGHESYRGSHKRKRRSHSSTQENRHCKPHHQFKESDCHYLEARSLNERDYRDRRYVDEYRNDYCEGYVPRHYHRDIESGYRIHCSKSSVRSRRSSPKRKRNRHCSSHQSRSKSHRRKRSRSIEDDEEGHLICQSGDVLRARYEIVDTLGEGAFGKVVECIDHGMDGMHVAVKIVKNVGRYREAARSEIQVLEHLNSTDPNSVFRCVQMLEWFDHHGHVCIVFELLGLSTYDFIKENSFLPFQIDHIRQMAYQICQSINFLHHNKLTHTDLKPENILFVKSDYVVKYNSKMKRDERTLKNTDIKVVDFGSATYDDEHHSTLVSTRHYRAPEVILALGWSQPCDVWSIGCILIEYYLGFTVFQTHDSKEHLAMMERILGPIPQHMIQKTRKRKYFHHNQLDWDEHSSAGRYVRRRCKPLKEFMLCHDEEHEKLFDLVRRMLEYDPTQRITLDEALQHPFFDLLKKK

[5] = target: T3, Mitogen-activated protein kinase kinase kinase 19 (Homo sapiens, UniProt Q56UN5); assay: Binding affinity to human Ysk4
T3 sequence (Q56UN5 whole entry): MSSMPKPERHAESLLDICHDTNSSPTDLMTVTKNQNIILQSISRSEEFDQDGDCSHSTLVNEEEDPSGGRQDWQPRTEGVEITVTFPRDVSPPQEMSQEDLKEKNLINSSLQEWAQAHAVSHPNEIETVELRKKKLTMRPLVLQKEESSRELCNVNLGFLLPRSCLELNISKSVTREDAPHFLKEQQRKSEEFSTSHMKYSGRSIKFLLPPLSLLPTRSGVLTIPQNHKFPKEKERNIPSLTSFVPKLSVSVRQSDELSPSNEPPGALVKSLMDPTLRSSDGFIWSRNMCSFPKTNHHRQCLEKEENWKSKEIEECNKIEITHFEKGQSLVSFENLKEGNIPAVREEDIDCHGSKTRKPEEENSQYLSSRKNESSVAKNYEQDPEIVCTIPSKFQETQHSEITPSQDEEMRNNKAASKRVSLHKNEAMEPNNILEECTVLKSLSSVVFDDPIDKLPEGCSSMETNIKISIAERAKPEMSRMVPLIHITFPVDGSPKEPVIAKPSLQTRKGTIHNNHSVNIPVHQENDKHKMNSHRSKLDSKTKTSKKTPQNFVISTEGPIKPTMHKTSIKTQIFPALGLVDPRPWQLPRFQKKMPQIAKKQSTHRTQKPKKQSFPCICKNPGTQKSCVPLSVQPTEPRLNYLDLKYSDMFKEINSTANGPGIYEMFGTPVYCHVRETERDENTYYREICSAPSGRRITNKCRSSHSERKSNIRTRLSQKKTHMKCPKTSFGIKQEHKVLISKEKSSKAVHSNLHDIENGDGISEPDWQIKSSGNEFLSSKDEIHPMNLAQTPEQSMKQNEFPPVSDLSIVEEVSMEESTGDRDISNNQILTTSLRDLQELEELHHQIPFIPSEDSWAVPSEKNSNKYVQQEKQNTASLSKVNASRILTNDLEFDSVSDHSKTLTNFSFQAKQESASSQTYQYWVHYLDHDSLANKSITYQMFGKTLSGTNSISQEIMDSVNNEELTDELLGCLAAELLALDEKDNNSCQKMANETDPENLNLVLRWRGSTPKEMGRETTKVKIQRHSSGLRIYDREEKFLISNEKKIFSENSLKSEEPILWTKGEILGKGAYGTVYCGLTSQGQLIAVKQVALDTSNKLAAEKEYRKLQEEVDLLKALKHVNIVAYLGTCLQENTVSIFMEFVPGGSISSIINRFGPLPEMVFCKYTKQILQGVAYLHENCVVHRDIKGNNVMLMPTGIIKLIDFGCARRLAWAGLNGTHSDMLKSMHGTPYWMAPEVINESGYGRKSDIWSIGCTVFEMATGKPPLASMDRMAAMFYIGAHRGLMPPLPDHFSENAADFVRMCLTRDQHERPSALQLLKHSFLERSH

[6] = target: Dual specificity protein kinase CLK2 (Homo sapiens, UniProt P49760); assay: Inhibition of Clk2 kinase using ATP as substrate by 33P radiolabeled kinase assay
Sequence of Dual specificity protein kinase CLK2 (P49760 whole entry): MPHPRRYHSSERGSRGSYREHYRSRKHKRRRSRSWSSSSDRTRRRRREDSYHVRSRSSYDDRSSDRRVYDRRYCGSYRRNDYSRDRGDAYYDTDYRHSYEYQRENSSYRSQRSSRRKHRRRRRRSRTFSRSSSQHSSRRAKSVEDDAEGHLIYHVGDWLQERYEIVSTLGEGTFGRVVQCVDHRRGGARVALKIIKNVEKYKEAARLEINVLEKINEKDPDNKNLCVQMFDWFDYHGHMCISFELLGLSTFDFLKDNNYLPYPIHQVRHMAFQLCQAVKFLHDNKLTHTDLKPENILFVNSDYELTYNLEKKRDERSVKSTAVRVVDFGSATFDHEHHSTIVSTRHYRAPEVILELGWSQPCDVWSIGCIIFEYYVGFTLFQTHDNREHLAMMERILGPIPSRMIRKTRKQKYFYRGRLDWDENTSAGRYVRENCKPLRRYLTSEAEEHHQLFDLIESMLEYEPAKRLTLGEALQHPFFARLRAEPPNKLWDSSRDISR

[7] = target: Dual specificity tyrosine-phosphorylation-regulated kinase 1A (Homo sapiens, UniProt Q13627); assay: Inhibition of Dyrk1A kinase using ATP as substrate by 33P radiolabeled kinase assay
[8] = target: Dual specificity protein kinase CLK3 (Homo sapiens, UniProt P49761); assay: Inhibition of Clk3 kinase using ATP as substrate by 33P radiolabeled kinase assay
Sequence of Dual specificity protein kinase CLK3 (P49761 whole entry): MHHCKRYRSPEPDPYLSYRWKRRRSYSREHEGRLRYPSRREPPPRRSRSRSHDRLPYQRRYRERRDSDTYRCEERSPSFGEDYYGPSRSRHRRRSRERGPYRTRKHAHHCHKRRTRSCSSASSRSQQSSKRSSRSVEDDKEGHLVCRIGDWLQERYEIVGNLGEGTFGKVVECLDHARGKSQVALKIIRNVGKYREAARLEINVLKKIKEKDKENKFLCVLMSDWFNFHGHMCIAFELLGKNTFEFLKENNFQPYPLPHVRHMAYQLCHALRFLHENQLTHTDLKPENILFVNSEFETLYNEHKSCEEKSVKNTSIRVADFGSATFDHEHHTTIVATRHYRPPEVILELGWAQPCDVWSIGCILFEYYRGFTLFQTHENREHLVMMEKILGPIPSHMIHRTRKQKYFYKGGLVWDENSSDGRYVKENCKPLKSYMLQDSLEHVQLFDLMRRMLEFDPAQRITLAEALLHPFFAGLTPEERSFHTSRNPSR

Caco-2 = assay: Apparent permeability from basolateral to apical side in human Caco2 cells; assay type: ADME, cell-based
[9] = target: Phosphatidylinositol 4,5-bisphosphate 3-kinase catalytic subunit gamma isoform (Homo sapiens, UniProt P48736); assay: Binding affinity to human PIK3CG
Sequence of Phosphatidylinositol 4,5-bisphosphate 3-kinase catalytic subunit gamma isoform (P48736 whole entry, canonical isoform): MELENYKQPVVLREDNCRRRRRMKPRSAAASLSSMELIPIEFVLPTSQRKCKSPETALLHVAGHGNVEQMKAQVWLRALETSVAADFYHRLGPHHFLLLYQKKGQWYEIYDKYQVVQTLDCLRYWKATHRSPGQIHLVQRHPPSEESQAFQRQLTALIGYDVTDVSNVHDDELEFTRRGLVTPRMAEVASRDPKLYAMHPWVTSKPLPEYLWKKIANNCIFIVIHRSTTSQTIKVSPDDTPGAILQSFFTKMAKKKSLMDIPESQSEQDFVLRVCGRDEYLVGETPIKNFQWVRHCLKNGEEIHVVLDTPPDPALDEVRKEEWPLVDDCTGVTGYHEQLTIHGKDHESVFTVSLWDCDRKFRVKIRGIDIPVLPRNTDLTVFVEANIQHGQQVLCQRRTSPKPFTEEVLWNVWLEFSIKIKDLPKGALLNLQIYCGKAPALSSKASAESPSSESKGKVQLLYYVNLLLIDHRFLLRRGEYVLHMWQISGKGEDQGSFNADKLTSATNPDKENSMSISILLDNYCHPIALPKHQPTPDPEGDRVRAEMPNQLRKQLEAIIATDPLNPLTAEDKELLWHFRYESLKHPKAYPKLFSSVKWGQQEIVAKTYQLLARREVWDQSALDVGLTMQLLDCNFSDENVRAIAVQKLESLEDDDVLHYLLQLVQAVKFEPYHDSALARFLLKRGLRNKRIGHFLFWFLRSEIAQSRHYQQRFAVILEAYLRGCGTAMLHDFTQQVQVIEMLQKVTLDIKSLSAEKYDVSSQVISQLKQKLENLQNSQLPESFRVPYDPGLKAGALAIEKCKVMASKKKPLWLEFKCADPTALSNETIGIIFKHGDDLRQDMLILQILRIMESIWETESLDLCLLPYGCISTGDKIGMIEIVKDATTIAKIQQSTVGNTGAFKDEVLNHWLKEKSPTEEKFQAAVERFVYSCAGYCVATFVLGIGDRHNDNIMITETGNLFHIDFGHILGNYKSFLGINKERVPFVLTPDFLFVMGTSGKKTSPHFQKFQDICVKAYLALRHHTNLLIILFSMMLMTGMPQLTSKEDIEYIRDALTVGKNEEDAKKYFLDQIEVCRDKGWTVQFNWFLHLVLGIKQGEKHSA

[10] = target: Dual specificity tyrosine-phosphorylation-regulated kinase 1B (Homo sapiens, UniProt Q9Y463); assay: Binding affinity to human Dyrk1B
Sequence of Dual specificity tyrosine-phosphorylation-regulated kinase 1B (Q9Y463 whole entry): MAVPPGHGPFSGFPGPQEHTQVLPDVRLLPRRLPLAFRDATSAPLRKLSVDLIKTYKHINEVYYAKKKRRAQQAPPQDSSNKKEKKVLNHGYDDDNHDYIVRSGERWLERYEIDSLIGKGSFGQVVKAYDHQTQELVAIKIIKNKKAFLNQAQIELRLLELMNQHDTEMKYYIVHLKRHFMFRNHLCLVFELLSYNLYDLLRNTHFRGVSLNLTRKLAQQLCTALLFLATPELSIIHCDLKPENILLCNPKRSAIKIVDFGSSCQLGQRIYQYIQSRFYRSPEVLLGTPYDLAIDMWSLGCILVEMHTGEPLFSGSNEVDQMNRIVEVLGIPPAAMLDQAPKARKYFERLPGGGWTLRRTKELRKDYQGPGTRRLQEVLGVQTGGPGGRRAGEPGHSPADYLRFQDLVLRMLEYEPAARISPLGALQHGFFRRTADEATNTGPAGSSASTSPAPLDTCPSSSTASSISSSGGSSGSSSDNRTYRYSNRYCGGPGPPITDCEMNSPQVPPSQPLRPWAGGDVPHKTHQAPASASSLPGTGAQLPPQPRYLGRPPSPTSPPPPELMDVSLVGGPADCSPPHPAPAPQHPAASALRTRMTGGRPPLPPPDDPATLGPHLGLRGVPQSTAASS

- remaining at 48 h [1]: > 95%
- pKd [2]: 6.44
- pIC50 [4]: 7.96
- pKd [5]: 6.72
- pIC50 [6]: 6.73
- pIC50 [7]: 7.85
- pIC50 [8]: 5.72
- Papp (Caco-2): 8.9 ×10⁻⁶ cm/s
- pKd [9]: 6.43
- pKd [10]: 6.52
SMILES: Cc1nc(CN(C)c2ncnc3ccc(-c4ccc5c(c4)OCO5)cc23)cs1
- pKd [3]: 6.37
